Literature values, collected in patent US20080009419A1, “GENETIC MODELS FOR STRATIFICATION OF CANCER RISK” (INTERGENETICS, INC., priority 2006, published 2008).
Read-outs that look alike come from different tables or passages of the source.

Experiments:
estrogen receptors [1] = details: animal test systems
[2] = system: invasive breast cancer incidence; details: postmenopausal women at high risk, by mouth once a day
[3] = for range of peak plasma concentration: single oral dose of 20 mg tamoxifen
[4] = system: rat mammary carcinoma induced by dimethylbenzanthracene (DMBA); details: rats
[5] = system: incidence of breast cancer; details: large osteoporosis prevention and treatment study
[6] = following chronic dosing
estrogen receptors [7] = details: preclinical data
[8] = 10 mg tamoxifen twice daily for 3 months, patients
[9] = 20 mg tamoxifen once daily for 3 months

| SMILES | reduction in invasive breast cancer incidence [2] [%] | range of steady-state plasma concentration [3, 8] [ng/mL] | range of steady-state plasma concentration [3, 9] [ng/mL] | range of peak plasma concentration [3] [ng/mL] | further results |
| --- | --- | --- | --- | --- | --- |
| CC/C(=C(\c1ccccc1)c1ccc(OCCN(C)C)cc1)c1ccccc1.O=C(O)CC(O)(CC(=O)O)C(=O)O [Tamoxifen citrate, (Z)2-[4-(1,2-diphenyl-1-butenyl)phenoxy]-N,N-dimethylethanamine 2-hydroxy-1,2,3-propanetricarboxylate (1:1)] | – | – | – | – | antiestrogenic properties (estrogen receptors [1]): potent antiestrogenic properties |
| CC/C(=C(\c1ccccc1)c1ccc(OCCN(C)C)cc1)c1ccccc1 [Tamoxifen] | 50 | 67 to 183 | 71 to 183 | 35 to 45 | terminal elimination half-life ([3]; biphasic decline in plasma): 120 to 170 h; DMBA-induced tumors in situ [4]: causes the regression |
| O=C(c1ccc(OCCN2CCCCC2)cc1)c1c(-c2ccc(O)cc2)sc2cc(O)ccc12 [Raloxifene] | 50 | – | – | – | incidence of breast cancer [5]: shown to reduce the incidence of breast cancer; clearance [6]: 40 to 60 L/kg per hour; estrogen antagonism in uterine and breast tissues (estrogen receptors [7]): estrogen antagonist |
| CC/C(=C(\c1ccccc1)c1ccc(OCCNC)cc1)c1ccccc1 [N-desmethyl tamoxifen] | – | 148 to 654 | 152 to 706 | 10 to 20 | half-life suggested by time to steady state ([3]; human, in vivo): approximately 14 days |
